What all share (assay): Glasshouse herbicide test, pre- and post-emergence, percentage damage
Common to all, as to type: in vivo

The test system of one test is Setaria faberi (SETFA). The note with it: 250 g/h, evaluated after 13 days, percentage damage on five point scale; for SETFA POST: post-emergence; for SETFA PRE: pre-emergence. A digest of the protocol: (§1)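 Five-point damage scores (5=80-100%, 1=0-19%) were recorded 13 days after application of 250 g/h. Treatment was pre-emergence (1 day after sowing) or post-emergence (8 days), and plants were kept at 24/16 °C, 14 h light, 65% humidity with twice-daily watering.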

For test [1], the system named is Echinochloa crus-galli (ECHCG). The note with it: 250 g/h, evaluated after 13 days, percentage damage on five point scale; for ECHCG POST: post-emergence; for ECHCG PRE: pre-emergence. A digest of the protocol:
as §1

In another test the test system is Avena fatua (AVEFA). Particulars: 250 g/h, evaluated after 13 days, percentage damage on five point scale; for AVEFA POST: post-emergence; for AVEFA PRE: pre-emergence. In short, it runs like this:
as §1

The next test concerns Lolium perenne (LOLPE). The note with it: 250 g/h, evaluated after 13 days, percentage damage on five point scale; for LOLPE POST: post-emergence; for LOLPE PRE: pre-emergence. A digest of the protocol:
as §1

Test [2] has as its system Alopecurus myosuroides (ALOMY). Particulars: 250 g/h, evaluated after 13 days, percentage damage on five point scale; for ALOMY POST: post-emergence; for ALOMY PRE: pre-emergence. In short, it runs like this:
as §1

For the compound `COCC(=O)N1CCC2(CC1)CC(=O)C(c1c(C)cc(-c3ncc(F)cn3)cc1C)C(=O)C2` [Compound A35], in the test with Setaria faberi (SETFA), the “SETFA POST” value is given as 5 (5=80-100%) and the “SETFA PRE” value is reported as 5 (5=80-100%). Also, in test [1], the “ECHCG POST” value is on record as 5 (5=80-100%) and the “ECHCG PRE” value was 5 (5=80-100%). Moreover, in the test with Avena fatua (AVEFA), the “AVEFA POST” value is 5 (5=80-100%) and the “AVEFA PRE” value was 5 (5=80-100%). For the same compound, in the test on Lolium perenne (LOLPE), the “LOLPE POST” value is on record as 5 (5=80-100%) and the “LOLPE PRE” value is recorded as 5 (5=80-100%). Also, in test [2], the “ALOMY POST” value is reported as 5 (5=80-100%) and the “ALOMY PRE” value is listed as 5 (5=80-100%).

Regarding `Cc1cc(-c2ccc(C#N)cn2)cc(C)c1C1C(=O)CC2(CCN(C(=O)CC#N)CC2)CC1=O` [Compound A44], in the test with Setaria faberi (SETFA), the “SETFA POST” value is 5 (5=80-100%) and the “SETFA PRE” value is reported as 5 (5=80-100%). In test [1], the “ECHCG POST” value is recorded as 4 (4=60-79%) and the “ECHCG PRE” value is given as 5 (5=80-100%). In addition, in the test with Avena fatua (AVEFA), the “AVEFA POST” value was 5 (5=80-100%) and the “AVEFA PRE” value is 3 (3=40-59%). Besides, in the test on Lolium perenne (LOLPE), the “LOLPE POST” value is 5 (5=80-100%) and the “LOLPE PRE” value is given as 3 (3=40-59%). In addition, in test [2], the “ALOMY POST” value is on record as 5 (5=80-100%) and the “ALOMY PRE” value is reported as 5 (5=80-100%).

On to `CC(=O)N1CCC2(CC1)CC(=O)C(c1c(C)cc(-n3cc(F)cn3)cc1C)C(=O)C2` [Compound A47], for which, in the test with Setaria faberi (SETFA), the “SETFA POST” value was 5 (5=80-100%) and the “SETFA PRE” value is on record as 4 (4=60-79%). In test [1], the “ECHCG POST” value is 1 (1=0-19%) and the “ECHCG PRE” value is reported as 3 (3=40-59%). In the test with Avena fatua (AVEFA), the “AVEFA POST” value is listed as 5 (5=80-100%) and the “AVEFA PRE” value was 4 (4=60-79%). Besides, in the test on Lolium perenne (LOLPE), the “LOLPE POST” value is given as 5 (5=80-100%) and the “LOLPE PRE” value is 4 (4=60-79%). In addition, in test [2], the “ALOMY POST” value is given as 5 (5=80-100%) and the “ALOMY PRE” value is listed as 2 (2=20-39%).

With `CC(=O)N1CCC2(CC1)CC(=O)C(c1c(C)cc(-c3ccc(Cl)cc3)cc1C)C(=O)C2` [Compound A49], in the test on Setaria faberi (SETFA), the “SETFA POST” value is on record as 5 (5=80-100%) and the “SETFA PRE” value is on record as 5 (5=80-100%). In addition, in test [1], the “ECHCG POST” value was 5 (5=80-100%) and the “ECHCG PRE” value is listed as 5 (5=80-100%). Also, in the test on Avena fatua (AVEFA), the “AVEFA POST” value was 5 (5=80-100%) and the “AVEFA PRE” value is 5 (5=80-100%). Also, in the test on Lolium perenne (LOLPE), the “LOLPE POST” value is 5 (5=80-100%) and the “LOLPE PRE” value is given as 5 (5=80-100%). Also, in test [2], the “ALOMY POST” value is 5 (5=80-100%) and the “ALOMY PRE” value is recorded as 5 (5=80-100%).

`Cc1cc(-c2ccc(C#N)cn2)cc(C)c1C1C(=O)CC2(CCN(C(=O)c3ccccn3)CC2)CC1=O` [Compound A24]: in the test with Setaria faberi (SETFA), the “SETFA POST” value is on record as 5 (5=80-100%) and the “SETFA PRE” value is recorded as 5 (5=80-100%). Also, in test [1], the “ECHCG POST” value is on record as 5 (5=80-100%) and the “ECHCG PRE” value is 5 (5=80-100%). Besides, in the test with Avena fatua (AVEFA), the “AVEFA POST” value is 5 (5=80-100%) and the “AVEFA PRE” value was 5 (5=80-100%). Besides, in the test on Lolium perenne (LOLPE), the “LOLPE POST” value is listed as 5 (5=80-100%) and the “LOLPE PRE” value is 5 (5=80-100%). In test [2], the “ALOMY POST” value is 5 (5=80-100%) and the “ALOMY PRE” value was 5 (5=80-100%).

Take `COc1cc(-c2ncc(F)cn2)cc(OC)c1C1C(=O)CC2(CCN(OC)CC2)CC1=O` [Compound A8]: in the test on Setaria faberi (SETFA), the “SETFA POST” value is given as 5 (5=80-100%) and the “SETFA PRE” value was 5 (5=80-100%). Further, in test [1], the “ECHCG POST” value is reported as 5 (5=80-100%) and the “ECHCG PRE” value is recorded as 5 (5=80-100%). Moreover, in the test with Avena fatua (AVEFA), the “AVEFA POST” value is 5 (5=80-100%) and the “AVEFA PRE” value was 5 (5=80-100%). In addition, in the test on Lolium perenne (LOLPE), the “LOLPE POST” value was 5 (5=80-100%) and the “LOLPE PRE” value is on record as 5 (5=80-100%). Besides, in test [2], the “ALOMY POST” value is 5 (5=80-100%) and the “ALOMY PRE” value is reported as 5 (5=80-100%).

Take `Cc1cc(-c2ccc(F)cc2)cc(C)c1C1C(=O)CC2(CCN(C(=O)c3ccccc3)CC2)CC1=O` [Compound A54]: in the test with Setaria faberi (SETFA), the “SETFA POST” value was 5 (5=80-100%) and the “SETFA PRE” value is on record as 5 (5=80-100%). Further, in test [1], the “ECHCG POST” value is listed as 5 (5=80-100%) and the “ECHCG PRE” value is 5 (5=80-100%). Besides, in the test with Avena fatua (AVEFA), the “AVEFA POST” value is listed as 5 (5=80-100%) and the “AVEFA PRE” value was 5 (5=80-100%). In addition, in the test with Lolium perenne (LOLPE), the “LOLPE POST” value is on record as 5 (5=80-100%) and the “LOLPE PRE” value is on record as 5 (5=80-100%). Moreover, in test [2], the “ALOMY PRE” value is reported as 5 (5=80-100%).

In the case of `CC(=O)N1CCC2(CC1)CC(=O)C(c1c(C)cc(-c3ccc(Cl)cn3)cc1C)C(=O)C2` [Compound A45], in the test with Setaria faberi (SETFA), the “SETFA POST” value is 5 (5=80-100%) and the “SETFA PRE” value was 5 (5=80-100%). In addition, in test [1], the “ECHCG POST” value is listed as 5 (5=80-100%) and the “ECHCG PRE” value is recorded as 5 (5=80-100%). For the same compound, in the test with Avena fatua (AVEFA), the “AVEFA POST” value was 5 (5=80-100%) and the “AVEFA PRE” value is 5 (5=80-100%). In the test on Lolium perenne (LOLPE), the “LOLPE POST” value was 5 (5=80-100%) and the “LOLPE PRE” value is recorded as 5 (5=80-100%). In addition, in test [2], the “ALOMY POST” value was 5 (5=80-100%) and the “ALOMY PRE” value is 5 (5=80-100%).

For the compound `COCC(=O)N1CCC2(CC1)CC(=O)C(c1c(C)cc(-c3ccc(F)cc3)cc1C)C(=O)C2` [Compound A56], in the test with Setaria faberi (SETFA), the “SETFA POST” value was 5 (5=80-100%) and the “SETFA PRE” value is 5 (5=80-100%). In test [1], the “ECHCG POST” value is 5 (5=80-100%) and the “ECHCG PRE” value is reported as 5 (5=80-100%). For the same compound, in the test on Avena fatua (AVEFA), the “AVEFA POST” value is 5 (5=80-100%) and the “AVEFA PRE” value is recorded as 5 (5=80-100%). Further, in the test on Lolium perenne (LOLPE), the “LOLPE POST” value is 5 (5=80-100%) and the “LOLPE PRE” value was 5 (5=80-100%). Besides, the “ALOMY PRE” value in test [2] is listed as 5 (5=80-100%).

On to `Cc1cc(-c2ncc(F)cn2)cc(C)c1C1C(=O)CC2(CCN(C(=O)C3CC3)CC2)CC1=O` [Compound A38], for which, in the test with Setaria faberi (SETFA), the “SETFA POST” value is reported as 5 (5=80-100%) and the “SETFA PRE” value is recorded as 5 (5=80-100%). For the same compound, in test [1], the “ECHCG POST” value was 5 (5=80-100%) and the “ECHCG PRE” value is 5 (5=80-100%). In the test on Avena fatua (AVEFA), the “AVEFA POST” value is on record as 5 (5=80-100%) and the “AVEFA PRE” value is 5 (5=80-100%). Also, in the test on Lolium perenne (LOLPE), the “LOLPE POST” value is given as 5 (5=80-100%) and the “LOLPE PRE” value is 5 (5=80-100%). Further, in test [2], the “ALOMY POST” value is reported as 5 (5=80-100%) and the “ALOMY PRE” value is 5 (5=80-100%).

Consider `Cc1cc(-c2ccc(C#N)cn2)cc(C)c1C1C(=O)CC2(CCN(C(=O)NC(C)(C)C)CC2)CC1=O` [Compound A26], for which, in the test on Setaria faberi (SETFA), the “SETFA POST” value is reported as 5 (5=80-100%) and the “SETFA PRE” value is recorded as 5 (5=80-100%). In addition, the “ECHCG PRE” value in test [1] is 5 (5=80-100%). In the test with Avena fatua (AVEFA), the “AVEFA POST” value was 2 (2=20-39%) and the “AVEFA PRE” value was 4 (4=60-79%). Besides, in the test with Lolium perenne (LOLPE), the “LOLPE POST” value is listed as 5 (5=80-100%) and the “LOLPE PRE” value is given as 5 (5=80-100%). In test [2], the “ALOMY POST” value is recorded as 5 (5=80-100%) and the “ALOMY PRE” value is listed as 5 (5=80-100%).

As to `CC(=O)N1CCC2(CC1)CC(=O)C(c1c(C)cc(-c3ccc(F)cc3)cc1C)C(=O)C2` [Compound A12], in the test with Setaria faberi (SETFA), the “SETFA POST” value is 5 (5=80-100%) and the “SETFA PRE” value is reported as 5 (5=80-100%). In addition, in test [1], the “ECHCG POST” value was 5 (5=80-100%) and the “ECHCG PRE” value is given as 5 (5=80-100%). In the test with Avena fatua (AVEFA), the “AVEFA POST” value is given as 5 (5=80-100%) and the “AVEFA PRE” value is 4 (4=60-79%). Further, in the test with Lolium perenne (LOLPE), the “LOLPE POST” value is on record as 5 (5=80-100%) and the “LOLPE PRE” value is recorded as 5 (5=80-100%). In addition, in test [2], the “ALOMY POST” value was 5 (5=80-100%) and the “ALOMY PRE” value is 5 (5=80-100%).
